Data on one molecule can be found in patent publication US20240299345A1, “GINKGOLIDE B AND ITS DERIVATIVES FOR INHIBITING AND/OR REVERSING AGING” (CHINA MEDICAL UNIVERSITY, priority 2023, published 2024).

The subject of series [1] is aged M1 macrophages, MPD C2C12, MPD C2C12-derived myotubes. The series is described as follows: Inflammatory cytokine expression in aged cells under culture conditions. The class given is cell-based, mouse. The settings on record: GB 5 mg/L for 48 hr. The text has this:
C2C12 myoblast cell line (#CRL-1772TM, ATCC, Manassas, VA, USA) was expanded in high-glucose DMEM (#D7777, Sigma-Aldrich) with 10% FBS (#10270106, Gibco, Waltham, MA, USA) and 1% PSG (#10378016, Gibco). Passage 15-20 C2C12 was considered as multiple population doublings C2C12. Subconfluent C2C12 was differentiated to myotubes by myogenic induction medium, high-glucose DMEM (Sigma-Aldrich) containing 2% horse scrum (#16050122, Gibco) for 5 days. Aged bone-marrow monocytes were isolated from 20-month-old female C57BL/6 mice and then differentiated into macrophages in RPMI 1640 (#11875085, Gibco) supplemented with 10% FBS and 20 ng/ml M-CSF (#315-02, PeproTech, Cranbury, NJ, USA). Inflammatory MI macrophages were induced by 45 ng/mL IFN-γ (#485-MI-100, R&D Systems, Minneapolis, MN, USA) +100 ng/mL LPS (#L4391, Sigma-Aldrich). The indicative cells were then treated with or without GB (5 mg/L) for 48 hr. […]
RNAs were purified by using the TRIzol® (#15596018, Invitrogen) and chloroform method (#C7559, Sigma-Aldrich) and reversed transcribed using High-Capacity cDNA Reverse Transcription Kit (#4368814, Applied Biosystems, Foster City, CA, USA). The quantitative RT-PCR was conducted with universal probe system (Roche Life Science, Indianapolis, IN, USA) by using a QuantStudio™ 7 Flex Real-Time PCR System (Applied Biosystems) and was normalized by the expression of GAPDH.

The test system of series [2] is 20-month-old aged female C57BL/6 mice. The series is described as follows: Physical functional analysis (grip strength, rotarod, hanging, balance beam) in aged mice. The class given is in vivo, mouse. How it is done: (§1) Forelimb grip strength was measured by a grip strength meter (Muromachi Kikai Co., Tokyo, Japan). Each mouse performed five trials for force measurement, and the values were normalized to body and recorded. A rotarod test was carried out by using the rotarod treadmill (Singa Technology Corporation, Taoyuan City, Taiwan). The speed was adjusted to 4 rpm for 4 sec, 10 rpm for 10 sec, 20 rpm for 20 sec, and then 40 rpm until the mice fell. Mice were familiarized with the rotarod and balance beam by running 5 min for three consecutive days before the onset of experimentation. During the experiment, each mouse performed four trials, and the average time that each rodent was able to stay on top of the rotarod treadmill was recorded. The balance beam test was used to assess subtle motor coordination and balance. After initial training, mice were given four consecutive trials where they were required to cross 60 cm of a round beam (14 mm in diameter). The time for crossing the beam and the number of hind-feet slip were recorded. Hanging endurance was determined by Kondziella's inverted hanging screen test. Mice were putted at the center of grasped wire screen (bar thickness, 2 mm; mesh, 10 mm). After inverting the wire screen, the time of sustained limb tension on the screen were recorded. A fixed maximum hanging limit of 600 seconds was used. Each trial was repeated three times at 30-min interval, the mean values were recorded.
A general note: In the rotarod test animals must keep their balance on a rotating rod.

Series [3] concerns ovariectomized (OVX) female C57BL/6 mice. The series is described as follows: Postmenopausal (OVX, estrogen-deficient) mouse model: muscle wasting and physical activity. The class given is in vivo. On the procedure:
as §1

For series [4], the system named is 6-month-old female C57BL/6 mice. The series is described as follows: GB in 6-month-old adult mice (steady state): osteocalcin, myofiber CSA, grip strength. Format: in vivo, mouse. The note with it: 6-month-old female mice. On the procedure: as §1
Serum was collected by cardiac puncture upon sacrifice.
The maintenance of muscle mass and strength in adulthood reduces the risk of sarcopenia and improves healthspan. Osteocalcin is necessary to maintain muscle mass and health throughout the whole life, and loss of osteocalcin after the age of 30 leads to muscle loss. Since GB increased osteocalcin in aged osteoblasts, we postulated that oral GB administration could increase osteocalcin and skeletal muscle mass in mice. In a proof-of-principle experiment, we gave GB to 6-month-old female mice equivalent to 30-year-old women for two months (FIG. 1A). […] GB administration enlarged the CSA of the tibialis anterior and soleus muscles (FIGS. 1C to 1E, p=0.021 and <0.0001, respectively) and increased forelimb grip strength (FIG. IF, p=0.036).

Series [5] relates to kidney, heart, spleen and liver in aged mice. The settings on record: mouse, in vivo.
Protocol: All animals were purchased from Laboratory Animal Services Centre, the Chinese University of Hong Kong, ad libitum fed the standard diet (#5V0f, LabDiet, St. Louis, MO, USA), and housed at specific-pathogen-free and humidity-controlled conditions under a 12 light: 12 dark photoperiod with temperature at 20-22° C. Animals were kept up to five per cage and were randomly assigned to control and experimental groups in all experiments. […] For the short-term experiment, 3-(young), 6-(adult) and 20-month-old (aged) female C57BL/6 mice were administered 12 mg/kg body weight GB (#G6910, Sigma-Aldrich, St. Louis, MO, USA) or vehicle daily by oral gavage for two months. […] GB was diluted to the appropriate concentration in 100 μL of sterile PBS (#10378016, Gibco, Waltham, MA, USA).
Tissue samples were harvested and embedded in paraffin or in OCT (#4583, Sakura Finetek USA, Torrance, CA, USA). For paraffin-embedded samples, 10 μm sections were deparaffinized by xylene and alcohol gradient treatment and were then hydrated by distilled water and processed for heat-induced antigen retrieval with antigen retrieval solution at 70° C. for 1.5 hours before staining. For OCT-embedded samples, 10 μm sections were hydrated by distilled water before staining. Hematoxylin and cosin staining (#MHS16 and #HT110116 Sigma-Aldrich), oil red O staining (#00625, Sigma-Aldrich), and Masson's trichrome staining (#HT15, Sigma-Aldrich) were used to assess the histology, lipid droplet, and collagen deposition. For immunohistochemical staining, antigen-retrieval samples were blocked with 5% bovine serum albumin (BSA) (#A9647, Sigma-Aldrich) for 1 hour at room temperature and incubated with primary antibodies overnight at 4° C., followed by a ready-to-use IHC/ICC Kit (#K405, BioVision, Milpitas, CA, USA) at room temperature. The samples were then suspended with double-distilled water and then stained with hematoxylin. For immunocytochemical staining, samples were blocked with 5% BSA (Sigma-Aldrich) for 1 hour at room temperature and incubated with primary antibodies overnight at 4° C., then washed with PBS for ten minutes, and then incubated with secondary antibody for 1 hour at room temperature, then washed with PBS three times for ten minutes.
Series [6] concerns 20-month-old aged female C57BL/6 mice.
Protocol: Animals were kept up to five per cage and were randomly assigned to control and experimental groups in all experiments. […] For the short-term experiment, 3-(young), 6-(adult) and 20-month-old (aged) female C57BL/6 mice were administered 12 mg/kg body weight GB (#G6910, Sigma-Aldrich, St. Louis, MO, USA) or vehicle daily by oral gavage for two months.
The noninvasive 31-item frailty index established by Whitehead et al. was used to evaluate frailty in mice (Whitehead, J. C. et al. A clinical frailty index in aging mice: comparisons with frailty index data in humans. J Gerontol A Biol Sci Med Sci 69, 621-632, doi:10.1093/gerona/glt136 (2014)). Whole assessments were conducted by blind investigators as possible. The scored items represent the aging-related deteriorations based on the criteria in clinical practice, consisting of the integument, musculoskeletal system, vestibulocochlear and auditory systems, ocular and nasal systems, digestive system, urogenital system, respiratory system, signs of discomfort, body weight and body surface temperature. Surface body temperature was determined by an infrared thermometer (Thermo Distance, Terraillon, Croissy-sur-seine, France), and grip strength was measured by the standard equipment described in the later section. The other subjective observations were scored by researchers. The scores 0, 0.5 and 1 indicated no sign of frailty, moderate defect and severe defect, respectively. For the body temperature, grip strength and body weight scoring, the average and standard deviation (STDEV) values were used as a baseline. A change within one STDEV is scored as a 0, a decreased change over one STDEV but lower than two STDEV was scored as a 0.5 and a change more than two STDEV was scored as a 1.
Where [7] appears, read: GB 3 and 12 mg/kg daily for two months.
[8] abbreviates: of 18 measurements increased by aging.

Consider `CC1C(=O)OC2C(O)C34C5CC(C(C)(C)C)C36C(OC(=O)C6O)OC4(C(=O)O5)C12O` (stereo not drawn) [GB, Ginkgolide B], for which the “inflammatory cytokines in aged cells under culture conditions” value in series [1] is given as “downregulated”. Further, the grip strength entry in series [2] (GB 12 mg/kg daily oral 2 months vs vehicle-aged, p<0.01) was “higher”. Moreover, the duration of hanging entry in series [2] (GB 2 months vs vehicle-aged, p<0.0001) is recorded as “prolonged duration”. In series [2] (GB 2 months vs vehicle-aged, p<0.05), the “duration on the rotarod” value is on record as “prolonged duration”. Further, in series [2] (GB 2 months, p<0.001), the “balance beam: latency to cross” value is “decreased” and the “balance beam: number of foot slips” value is reported as “reduced”. In series [3] (setting [7]), the “myofiber CSA” value is reported as “dose-dependently restored” and the skeletal muscle mass entry was “dose-dependently restored”. In addition, in series [3] (high-dose GB, two months), the “decline of motor performance” value was “fully reversed” and the forelimb grip strength result is listed as “improved”. Moreover, the “CSA of the soleus muscle” value in series [4] (GB 12 mg/kg daily oral 2 months vs vehicle, p<0.0001) is reported as “enlarged”. Moreover, the “CSA of the tibialis anterior muscle” value in series [4] (GB 12 mg/kg daily oral 2 months vs vehicle, p=0.021) is on record as “enlarged”. Besides, the forelimb grip strength result in series [4] (GB 12 mg/kg daily oral 2 months vs vehicle, p=0.036) is on record as “increased”. Further, in series [4] (GB 12 mg/kg daily oral gavage 2 months vs vehicle, p=0.0114), the circulating osteocalcin result is listed as “significantly higher”. Also, in series [5], the “circulating GOT, GPT and UA” value is “reduction”; the “liver and spleen size” value was “no effect”. In series [6] (aged mice, GB 2 months vs vehicle-aged, p<0.0001), the “reduction of aging-related frailty index score” value was 63.1%. Also, the “average frailty index score” value in series [6] (aged mice, GB 2 months, mean±SD, vehicle-aged 0.43±0.13, young 0.01±0.01) amounted to 0.16±0.05. Moreover, the deterioration of frailty entry in series [6] (mouse, in vivo) is “did not observe any deterioration”. Moreover, in series [6] (setting [8]), the “number of aging-related frailty measurements modestly attenuated” value stood at 3 and the “number of aging-related frailty measurements reversed” value is given as 13.
